Drawing on ChEMBL document CHEMBL3784938, “Novel heterocyclic ring-fused oleanolic acid derivatives as osteoclast inhibitors for osteoporosis” (Medchemcomm, 2016), this text covers inhibition, IC50 and cytotoxicity for 32 compounds.

Data set [1] deals with RAW264.7. The data set can be described thus: Antiosteoclast activity in mouse RAW264.7 cells assessed as inhibition of RANKL-induced osteoclast differentiation at 20 uM after 5 days by TRAP assay. In kind it is functional. Particulars: RAW264.7, 120 h.
In data set [2] the test system is RAW264.7. The data set can be described thus: Antiosteoclast activity in mouse RAW264.7 cells assessed as inhibition of RANKL-induced osteoclast differentiation at 2 uM after 5 days by TRAP assay. In kind it is functional. Particulars: RAW264.7, 120 h.
The subject of data set [3] is RAW264.7. The data set can be described thus: cells. The following applies: Mus musculus, RAW264.7, 120 h.
Description: Antiosteoclast activity in mouse RAW264.7 cells assessed as inhibition of RANKL-induced osteoclast differentiation after 5 days by TRAP assay
Data set [4] in a line: Cytotoxicity against mouse RAW264.7 cells assessed as inhibition of cell viability at 10 uM after 24 hrs by MTT assay. In kind it is cell-based. Particulars: read-out: INH. On the technique in general: Formazan colour is commonly taken as a measure of viable cells.
A short description of data set [5]: Cytotoxicity against mouse RAW264.7 cells assessed as inhibition of cell viability at 2 uM after 24 hrs by MTT assay. In kind it is cell-based. The following applies: read-out: INH.
Data set [6] can be described thus: Cytotoxicity against mouse RAW264.7 cells assessed as inhibition of cell viability at 5 uM after 24 hrs by MTT assay. In kind it is cell-based. Particulars: read-out: INH.
The nature of data set [7]: Cytotoxicity against mouse RAW264.7 cells assessed as inhibition of cell viability at 20 uM after 24 hrs by MTT assay. In kind it is cell-based. The following applies: read-out: INH.

For orientation: inhibition means the percentage by which the read-out fell short of the control. `Cc1noc(C)c1S(=O)(=O)n1cc2c(n1)C(C)(C)[C@@H]1CC[C@]3(C)[C@H](CC=C4[C@@H]5CC(C)(C)CC[C@]5(C(=O)NCCCN5CCOCC5)CC[C@]43C)[C@@]1(C)C2`: the inhibition at 20 µM in the data set on RAW264.7 [1] was 100%. Besides, the inhibition at 2 µM in the data set with RAW264.7 [2] amounted to 75.2%.
Regarding `CC1(C)CC[C@]2(C(=O)NCCCN3CCOCC3)CC[C@]3(C)C(=CC[C@@H]4[C@@]5(C)Cc6cn(S(=O)(=O)c7ccc(Cl)cc7)nc6C(C)(C)[C@@H]5CC[C@]43C)[C@@H]2C1`, in the data set on RAW264.7 [1], the inhibition at 20 µM was determined as 56.1%. Also, the inhibition at 2 µM with RAW264.7 [2] worked out at 20.6%.
One may read the IC50 as the point on the concentration scale where inhibition reaches its midpoint. Higher therefore signals weaker potency. `CC1(C)CC[C@]2(C(=O)NCCN3CCCCC3)CC[C@]3(C)C(=CC[C@@H]4[C@@]5(C)Cc6cn(S(=O)(=O)c7ccc(C(F)(F)F)cc7)nc6C(C)(C)[C@@H]5CC[C@]43C)[C@@H]2C1`: in the data set with RAW264.7 [1], the inhibition at 20 µM came to 100%. For the same compound, in the data set on RAW264.7 [2], the inhibition at 2 µM was determined as 100%. In the data set on RAW264.7 [3], this compound came in with a half-maximal inhibitory concentration (IC50) of 68 nM.
As to `CC1(C)CC[C@]2(C(=O)NCCN3CCCCC3)CC[C@]3(C)C(=CC[C@@H]4[C@@]5(C)Cc6cnoc6C(C)(C)[C@@H]5CC[C@]43C)[C@@H]2C1`, in the data set on RAW264.7 [1], the inhibition at 20 µM was found to be 100%. In the data set on RAW264.7 [2], the inhibition at 2 µM is 78.5%.
As to `CC1(C)CC[C@]2(C(=O)O)CC[C@]3(C)C(=CC[C@@H]4[C@@]5(C)Cc6cn[nH]c6C(C)(C)[C@@H]5CC[C@]43C)[C@@H]2C1`, in the data set on RAW264.7 [1], the inhibition at 20 µM was determined as 99%. The inhibition at 2 µM in the data set on RAW264.7 [2] came to 32.1%.
The corresponding values for `CC1(C)CC[C@]2(C(=O)NC3CCN(Cc4ccccc4)CC3)CC[C@]3(C)C(=CC[C@@H]4[C@@]5(C)Cc6c[nH]nc6C(C)(C)[C@@H]5CC[C@]43C)[C@@H]2C1` are 100% and 88.6%.
On to `Cc1cccc(S(=O)(=O)n2cc3c(n2)C(C)(C)[C@@H]2CC[C@]4(C)[C@H](CC=C5[C@@H]6CC(C)(C)CC[C@]6(C(=O)NCCN6CCCCC6)CC[C@]54C)[C@@]2(C)C3)c1`, for which, in the data set with RAW264.7 [1], the inhibition at 20 µM worked out at 100%. Besides, in the data set with RAW264.7 [2], the inhibition at 2 µM was found to be 33.6%.
The corresponding values for `CC1(C)CC[C@]2(C(=O)NCCCN3CCOCC3)CC[C@]3(C)C(=CC[C@@H]4[C@@]5(C)Cc6c[nH]nc6C(C)(C)[C@@H]5CC[C@]43C)[C@@H]2C1` are 100% and 49.8%.
With `CC1(C)CC[C@]2(C(=O)NCCN3CCCCC3)CC[C@]3(C)C(=CC[C@@H]4[C@@]5(C)Cc6cn(S(=O)(=O)c7ccc(C(C)(C)C)cc7)nc6C(C)(C)[C@@H]5CC[C@]43C)[C@@H]2C1`, in the data set with RAW264.7 [1], the inhibition at 20 µM turned out to be 89.8%. In the data set on RAW264.7 [2], the inhibition at 2 µM is 20.8%.
The corresponding values for `CC1(C)CC[C@]2(C(=O)NCCCN3CCOCC3)CC[C@]3(C)C(=CC[C@@H]4[C@@]5(C)Cc6cn(S(=O)(=O)c7ccc(C(C)(C)C)cc7)nc6C(C)(C)[C@@H]5CC[C@]43C)[C@@H]2C1` are 97.7% and 56.1%.
On to `CC1(C)CC[C@]2(C(=O)NCCCN3CCOCC3)CC[C@]3(C)C(=CC[C@@H]4[C@@]5(C)Cc6cn(S(=O)(=O)c7ccc(OC(F)(F)F)cc7)nc6C(C)(C)[C@@H]5CC[C@]43C)[C@@H]2C1`, for which the inhibition at 20 µM in the data set with RAW264.7 [1] amounted to 86.3%. The inhibition at 2 µM in the data set with RAW264.7 [2] came out at 31.8%.
In the same order, the values of `CC1(C)CC[C@]2(C(=O)NC3CCN(Cc4ccccc4)CC3)CC[C@]3(C)C(=CC[C@@H]4[C@@]5(C)Cc6cn(S(=O)(=O)c7ccc(Cl)cc7)nc6C(C)(C)[C@@H]5CC[C@]43C)[C@@H]2C1` are 41.3% and 18.2%.
As for `CC1(C)CC[C@]2(C(=O)NC3CCN(Cc4ccccc4)CC3)CC[C@]3(C)C(=CC[C@@H]4[C@@]5(C)Cc6cn(S(=O)(=O)c7ccc(C(C)(C)C)cc7)nc6C(C)(C)[C@@H]5CC[C@]43C)[C@@H]2C1`, the inhibition at 20 µM in the data set with RAW264.7 [1] is 65.6%. The inhibition at 2 µM with RAW264.7 [2] was 39.2%.
Regarding `CC1(C)CC[C@]2(C(=O)NCCCN3CCOCC3)CC[C@]3(C)C(=CC[C@@H]4[C@@]5(C)Cc6cn(S(=O)(=O)c7ccc(F)cc7)nc6C(C)(C)[C@@H]5CC[C@]43C)[C@@H]2C1`, the inhibition at 20 µM in the data set with RAW264.7 [1] was 97.7%. In addition, the inhibition at 2 µM in the data set on RAW264.7 [2] was 56.1%.
On to `CC1(C)CC[C@]2(C(=O)NC3CCN(Cc4ccccc4)CC3)CC[C@]3(C)C(=CC[C@@H]4[C@@]5(C)Cc6cn(S(=O)(=O)c7ccc(Br)cc7)nc6C(C)(C)[C@@H]5CC[C@]43C)[C@@H]2C1`, for which the inhibition at 20 µM in the data set with RAW264.7 [1] came to 19.6%. Moreover, the inhibition at 2 µM in the data set with RAW264.7 [2] was 20.3%.
In the same order, the values of `CC1(C)CC[C@]2(C(=O)NCc3ccccc3)CC[C@]3(C)C(=CC[C@@H]4[C@@]5(C)Cc6cnoc6C(C)(C)[C@@H]5CC[C@]43C)[C@@H]2C1` are 69.3% and 27.3%.
The corresponding values for `CC1(C)CC[C@]2(C(=O)NC3CCN(Cc4ccccc4)CC3)CC[C@]3(C)C(=CC[C@@H]4[C@@]5(C)Cc6cnoc6C(C)(C)[C@@H]5CC[C@]43C)[C@@H]2C1` are 99.6% and 17.6%.
In the same order, the values of `Cn1cnc(S(=O)(=O)n2cc3c(n2)C(C)(C)[C@@H]2CC[C@]4(C)[C@H](CC=C5[C@@H]6CC(C)(C)CC[C@]6(C(=O)NCCN6CCCCC6)CC[C@]54C)[C@@]2(C)C3)c1` are 100% and 89.5%.
In the case of `COc1ccc(S(=O)(=O)n2cc3c(n2)C(C)(C)[C@@H]2CC[C@]4(C)[C@H](CC=C5[C@@H]6CC(C)(C)CC[C@]6(C(=O)NCCCN6CCOCC6)CC[C@]54C)[C@@]2(C)C3)cc1OC`, the inhibition at 20 µM in the data set on RAW264.7 [1] is 50.9%. In addition, the inhibition at 2 µM in the data set on RAW264.7 [2] was 34.4%.
Consider `Cn1cc2c(n1)C(C)(C)[C@@H]1CC[C@]3(C)[C@H](CC=C4[C@@H]5CC(C)(C)CC[C@]5(C(=O)NCc5ccccc5)CC[C@]43C)[C@@]1(C)C2`, for which the inhibition at 20 µM in the data set with RAW264.7 [1] was 99.7%. Also, the inhibition at 2 µM in the data set on RAW264.7 [2] was determined as 76%.
In the same order, the values of `CC1(C)CC[C@]2(C(=O)NCc3ccccc3)CC[C@]3(C)C(=CC[C@@H]4[C@@]5(C)Cc6c[nH]nc6C(C)(C)[C@@H]5CC[C@]43C)[C@@H]2C1` are 100% and 67.7%.
For the compound `CC1(C)CC[C@]2(C(=O)NC3CCN(Cc4ccccc4)CC3)CC[C@]3(C)C(=CC[C@@H]4[C@@]5(C)Cc6cn(S(=O)(=O)c7ccc(OC(F)(F)F)cc7)nc6C(C)(C)[C@@H]5CC[C@]43C)[C@@H]2C1`, the inhibition at 20 µM in the data set on RAW264.7 [1] came to 71.9%. Moreover, the inhibition at 2 µM in the data set on RAW264.7 [2] was found to be 2.2%.
In the same order, the values of `CC1(C)CC[C@]2(C(=O)NC3CCN(Cc4ccccc4)CC3)CC[C@]3(C)C(=CC[C@@H]4[C@@]5(C)Cc6cn(S(=O)(=O)c7ccc(F)cc7)nc6C(C)(C)[C@@H]5CC[C@]43C)[C@@H]2C1` are 82.9% and 73%.
In the same order, the values of `CC1(C)CC[C@]2(C(=O)NCc3ccccc3)CC[C@]3(C)C(=CC[C@@H]4[C@@]5(C)Cc6cn(S(=O)(=O)c7ccc(Cl)cc7)nc6C(C)(C)[C@@H]5CC[C@]43C)[C@@H]2C1` are 0% and 0%.
In the same order, the values of `Cc1noc(C)c1S(=O)(=O)n1cc2c(n1)C(C)(C)[C@@H]1CC[C@]3(C)[C@H](CC=C4[C@@H]5CC(C)(C)CC[C@]5(C(=O)NC5CCN(Cc6ccccc6)CC5)CC[C@]43C)[C@@]1(C)C2` are 69.5% and 64%.
Consider `CC1(C)CC[C@]2(C(=O)NCCN3CCCCC3)CC[C@]3(C)C(=CC[C@@H]4[C@@]5(C)Cc6cn(S(=O)(=O)c7ccc(Cl)cc7)nc6C(C)(C)[C@@H]5CC[C@]43C)[C@@H]2C1`, for which the inhibition at 20 µM with RAW264.7 [1] worked out at 100%. Besides, the inhibition at 2 µM in the data set with RAW264.7 [2] turned out to be 0.9%.
On to `Cc1noc(C)c1S(=O)(=O)n1cc2c(n1)C(C)(C)[C@@H]1CC[C@]3(C)[C@H](CC=C4[C@@H]5CC(C)(C)CC[C@]5(C(=O)NCCN5CCCCC5)CC[C@]43C)[C@@]1(C)C2`, for which the cytotoxicity at 24 h, 10 µM in data set [4] amounted to 70.7%. Further, the inhibition at 20 µM in the data set on RAW264.7 [1] came to 100%. Moreover, the inhibition at 2 µM in the data set with RAW264.7 [2] was 22.3%. Besides, in data set [5], the cytotoxicity at 24 h, 2 µM came to 0%. Also, the cytotoxicity at 24 h, 5 µM in data set [6] amounted to 0%. Moreover, in data set [7], the cytotoxicity at 24 h, 20 µM is 72%.
On to `CC1(C)CC[C@]2(C(=O)O)CC[C@]3(C)C(=CC[C@@H]4[C@@]5(C)CC[C@H](O)C(C)(C)[C@@H]5CC[C@]43C)[C@@H]2C1` [OLEANOLIC_ACID], for which the inhibition at 20 µM in the data set with RAW264.7 [1] is 82.1%. Besides, in the data set with RAW264.7 [2], the inhibition at 2 µM turned out to be 11.4%.
In the same order, the values of `CC1(C)CC[C@]2(C(=O)NCCCN3CCOCC3)CC[C@]3(C)C(=CC[C@@H]4[C@@]5(C)Cc6cnoc6C(C)(C)[C@@H]5CC[C@]43C)[C@@H]2C1` are 45.9% and 23.2%.
In the same order, the values of `Cn1cnc(S(=O)(=O)n2cc3c(n2)C(C)(C)[C@H]2CC[C@@]4(C)[C@@H](CC=C5[C@H]6CC(C)(C)CC[C@@]6(C(=O)NC6CCN(Cc7ccccc7)CC6)CC[C@@]54C)[C@]2(C)C3)c1` are 100% and 80.7%.
As for `CC1(C)CC[C@]2(C(=O)O)CC[C@]3(C)C(=CC[C@@H]4[C@@]5(C)Cc6cnoc6C(C)(C)[C@@H]5CC[C@]43C)[C@@H]2C1`, the inhibition at 20 µM in the data set with RAW264.7 [1] amounted to 100%. Besides, in the data set with RAW264.7 [2], the inhibition at 2 µM turned out to be 27.4%.
Regarding `CC1(C)CC[C@]2(C(=O)NC3CCN(Cc4ccccc4)CC3)CC[C@]3(C)C(=CC[C@@H]4[C@@]5(C)Cc6cn(S(=O)(=O)c7ccc(C(F)(F)F)cc7)nc6C(C)(C)[C@@H]5CC[C@]43C)[C@@H]2C1`, in the data set with RAW264.7 [1], the inhibition at 20 µM was 82.1%. In addition, the inhibition at 2 µM in the data set with RAW264.7 [2] came out at 83.6%.
